In patent publication US20020137929A1, “1 - (3-heterocyclylphenyl) isothiourea, -isourea, -guanidine and -amidine herbicidal agents” (Intellectual Property Department, BASF Aktiengesellschaft, priority 1998, published 2002):

Experiments:
[1] = tested on: TRZAWR (Wheat, Winter, cv Riband); assay: Postemergence herbicidal evaluation; assay type: in vivo, Triticum aestivum; settings: for TRZAWR herbicidal rating: postemergence
In short: (§1)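 ~2-wk seedlings; postemergence spray, 40 psi; vehicle 1:1 acetone:water + 0.5% Tween 20; rate ≈0.0156–0.500 kg/ha; greenhouse hold; scored 4–5 wk after treatment, 0–9 scale vs control; repeat tests averaged.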

ABUTH (Velvetleaf) = assay: Postemergence herbicidal evaluation; assay type: in vivo, Abutilon theophrasti; settings: for ABUTH herbicidal rating: postemergence
In short: as §1

GALAP (Galium) = assay: Preemergence herbicidal evaluation; assay type: in vivo, Galium aparine; settings: rated 4-5 weeks after treatment
In short: (§2)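 Sown cups got a single aqueous acetone spray of test compound (roughly 0.0156–0.500 kg/ha) before seedlings emerged. Evaluation, 4–5 weeks on, used a 0–9 visual scale covering plant stand, vigor, size, malformation, chlorosis and general appearance compared with controls.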

[2] = tested on: ECHORC (Watergrass (Calif.)); assay: Postemergence weed control under flooded paddy conditions; assay type: in vivo, Echinochloa oryzoides; settings: postemergence weeds, 3-4 weeks after treatment
In short: (§3)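 Flood-water application, about 0.0313–0.500 kg/ha a.i. in aqueous/acetone 50/50 v/v; water depth 1.5–3 cm throughout. Weeds 3–5 cm, rice 1.5–2.5 leaf. Greenhouse; 0–9 visual rating vs control at 3–4 wk.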

[3] = tested on: GLXMAW (Soybean, Williams); assay: Postemergence herbicidal evaluation; assay type: in vivo, Glycine max, (L.) Merr. cv Williams; settings: for GLXMAW herbicidal rating: postemergence
In short: as §1

CYPIR (Rice Flatsedge) = assay: Preemergence weed control under flooded paddy conditions; assay type: in vivo, Cyperus iria; settings: rated 3-4 weeks after treatment
In short: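 Herbicidal effect is scored visually on a 0-9 scale against an untreated control, three to four weeks after compounds are pipetted into the flood water (1.5 to 3 cm deep) over seeds planted in silt loam at 0.5 cm depth. Rates: about 0.0313 to 0.500 kg/ha.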

SETVI (Foxtail, Green) [4] = assay: Preemergence herbicidal evaluation; assay type: in vivo, Setaria viridis; settings: rated 4-5 weeks after treatment
In short: as §2

AMBEL (Ragweed, Common) = assay: Preemergence herbicidal evaluation; assay type: in vivo, Ambrosia artemisifolia; settings: rated 4-5 weeks after treatment
In short: as §2

ORYSAT (Rice, Tebonnet) = assay: Postemergence herbicidal evaluation; assay type: in vivo, Oryza sativa, (L.) Tebonnet; settings: for ORYSAT herbicidal rating: postemergence
In short: as §1

[5] = tested on: SAGPY (Arrowhead (Pygmaea)); assay: Postemergence weed control under flooded paddy conditions; assay type: in vivo, Sagittaria pygmaea; settings: postemergence weeds, 3-4 weeks after treatment
In short: as §3

SETVI (Foxtail, Green) [6] = assay: Postemergence herbicidal evaluation; assay type: in vivo, Setaria viridis; settings: for SETVI herbicidal rating: postemergence
In short: as §1

CYPSE (Flatsedge) = assay: Postemergence weed control under flooded paddy conditions; assay type: in vivo, Cyperus serotinus; settings: postemergence weeds, 3-4 weeks after treatment
In short: as §3

[7] = tested on: CHEAL (Lambsquarters, Common); assay: Postemergence herbicidal evaluation; assay type: in vivo, Chenopodium album; settings: for CHEAL herbicidal rating: postemergence
In short: as §1

ZEAMX (Corn, Field) = assay: Postemergence herbicidal evaluation; assay type: in vivo, Zea mays; settings: for ZEAMX herbicidal rating: postemergence
In short: as §1

CCOC(=O)CN1C(=O)C(=Cc2ccccc2)SC1=Nc1cc(-n2c(=O)cc(C(F)(F)F)n(C)c2=O)c(F)cc1Cl [Compound 19, Ethyl 5-benzylidene-2-{{2-chloro-5-[3,6-dihydro-3-methyl-2,6-dioxo-4-(trifluoromethyl)-1(2H)-pyrimidinyl]-4-fluorophenyl}imino}-4-oxo-3-thiazolidineacetate]
TRZAWR herbicidal rating ([1]; rate 0.0158 kg/ha): 3.0
TRZAWR herbicidal rating ([1]; rate 0.0315 kg/ha): 4.0
TRZAWR herbicidal rating ([1]; rate 0.0630 kg/ha): 4.5
ABUTH herbicidal rating (ABUTH (Velvetleaf); rate 0.0158 kg/ha): 9.0
ABUTH herbicidal rating (ABUTH (Velvetleaf); rate 0.0315 kg/ha): 9.0
ABUTH herbicidal rating (ABUTH (Velvetleaf); rate 0.0630 kg/ha): 9.0
GALAP preemergence herbicidal rating (GALAP (Galium); rate 0.1250 kg/ha): 0.0
GALAP preemergence herbicidal rating (GALAP (Galium); rate 0.2500 kg/ha): 0.0
Herbicidal rating ECHORC ([2]; rate 0.1160 kg/ha): 7.0
Herbicidal rating ECHORC ([2]; rate 0.2310 kg/ha): 7.0
Herbicidal rating ECHORC ([2]; rate 0.4630 kg/ha): 9.0
GLXMAW herbicidal rating ([3]; rate 0.0158 kg/ha): 3.0
GLXMAW herbicidal rating ([3]; rate 0.0315 kg/ha): 4.5
GLXMAW herbicidal rating ([3]; rate 0.0630 kg/ha): 4.5
Herbicidal rating CYPIR (CYPIR (Rice Flatsedge); 0.1160 kg/ha): 0.0
Herbicidal rating CYPIR (CYPIR (Rice Flatsedge); 0.2310 kg/ha): 0.0
Herbicidal rating CYPIR (CYPIR (Rice Flatsedge); 0.4630 kg/ha): 0.0
SETVI preemergence herbicidal rating (SETVI (Foxtail, Green) [4]; rate 0.1250 kg/ha): 0.0
SETVI preemergence herbicidal rating (SETVI (Foxtail, Green) [4]; rate 0.2500 kg/ha): 0.0
AMBEL preemergence herbicidal rating (AMBEL (Ragweed, Common); rate 0.1250 kg/ha): 0.0
AMBEL preemergence herbicidal rating (AMBEL (Ragweed, Common); rate 0.2500 kg/ha): 1.0
ORYSAT herbicidal rating (ORYSAT (Rice, Tebonnet); rate 0.0158 kg/ha): 1.5
ORYSAT herbicidal rating (ORYSAT (Rice, Tebonnet); rate 0.0315 kg/ha): 2.0
ORYSAT herbicidal rating (ORYSAT (Rice, Tebonnet); rate 0.0630 kg/ha): 2.5
Herbicidal rating SAGPY ([5]; rate 0.1160 kg/ha): 0.0
Herbicidal rating SAGPY ([5]; rate 0.2310 kg/ha): 3.0
Herbicidal rating SAGPY ([5]; rate 0.4630 kg/ha): 3.0
SETVI herbicidal rating (SETVI (Foxtail, Green) [6]; rate 0.0158 kg/ha): 1.0
SETVI herbicidal rating (SETVI (Foxtail, Green) [6]; rate 0.0315 kg/ha): 2.0
SETVI herbicidal rating (SETVI (Foxtail, Green) [6]; rate 0.0630 kg/ha): 2.0
Herbicidal rating CYPSE (CYPSE (Flatsedge); rate 0.1160 kg/ha): 4.0
Herbicidal rating CYPSE (CYPSE (Flatsedge); rate 0.2310 kg/ha): 4.0
Herbicidal rating CYPSE (CYPSE (Flatsedge); rate 0.4630 kg/ha): 4.0
CHEAL herbicidal rating ([7]; rate 0.0158 kg/ha): 3.0
CHEAL herbicidal rating ([7]; rate 0.0315 kg/ha): 7.0
CHEAL herbicidal rating ([7]; rate 0.0630 kg/ha): 9.0
ZEAMX herbicidal rating (ZEAMX (Corn, Field); rate 0.0158 kg/ha): 4.0
ZEAMX herbicidal rating (ZEAMX (Corn, Field); rate 0.0315 kg/ha): 4.5
ZEAMX herbicidal rating (ZEAMX (Corn, Field); rate 0.0630 kg/ha): 5.0

CCOC(=O)CN1C(=O)CS(=O)(=O)C1=Nc1cc(-n2c(=O)cc(C(F)(F)F)n(C)c2=O)c(F)cc1Cl [Compound 46, 2-{{2-Chloro-5-[3,6-dihydro-3-methyl-2,6-dioxo-4-(trifluoromethyl)-1(2H)-pyrimidinyl]-4-fluoro-phenyl}imino}-4-oxo-3-thiazolidineacetic acid, ethyl ester, 1,1-dioxide]
Postemergence herbicidal rating TRZAWR ([1]; Rate 0.0313 kg/ha): 2.0
Postemergence herbicidal rating TRZAWR ([1]; Rate 0.0625 kg/ha): 3.0
Postemergence herbicidal rating ABUTH (ABUTH (Velvetleaf); Rate 0.0313 kg/ha): 4.0
Postemergence herbicidal rating ABUTH (ABUTH (Velvetleaf); Rate 0.0625 kg/ha): 9.0
Preemergence herbicidal rating GALAP (GALAP (Galium); rate 0.1250 kg/ha): 0.0
Preemergence herbicidal rating GALAP (GALAP (Galium); rate 0.2500 kg/ha): 0.0
Herbicidal rating ECHORC ([2]; rate 0.0313 kg/ha): 0.0
Herbicidal rating ECHORC ([2]; rate 0.0625 kg/ha): 0.0
Herbicidal rating ECHORC ([2]; rate 0.1250 kg/ha): 0.0
Herbicidal rating ECHORC ([2]; rate 0.2500 kg/ha): 4.0
Postemergence herbicidal rating GLXMAW ([3]; Rate 0.0313 kg/ha): 5.0
Postemergence herbicidal rating GLXMAW ([3]; Rate 0.0625 kg/ha): 5.5
Herbicidal rating CYPIR (CYPIR (Rice Flatsedge); 0.0313 kg/ha): 0.0
Herbicidal rating CYPIR (CYPIR (Rice Flatsedge); 0.0625 kg/ha): 0.0
Herbicidal rating CYPIR (CYPIR (Rice Flatsedge); 0.1250 kg/ha): 0.0
Herbicidal rating CYPIR (CYPIR (Rice Flatsedge); 0.2500 kg/ha): 0.0
Preemergence herbicidal rating SETVI (SETVI (Foxtail, Green) [4]; rate 0.1250 kg/ha): 0.0
Preemergence herbicidal rating SETVI (SETVI (Foxtail, Green) [4]; rate 0.2500 kg/ha): 0.0
Preemergence herbicidal rating AMBEL (AMBEL (Ragweed, Common); rate 0.1250 kg/ha): 1.0
Preemergence herbicidal rating AMBEL (AMBEL (Ragweed, Common); rate 0.2500 kg/ha): 1.0
Postemergence herbicidal rating ORYSAT (ORYSAT (Rice, Tebonnet); Rate 0.0313 kg/ha): 1.0
Postemergence herbicidal rating ORYSAT (ORYSAT (Rice, Tebonnet); Rate 0.0625 kg/ha): 1.5
Herbicidal rating SAGPY ([5]; rate 0.0313 kg/ha): 0.0
Herbicidal rating SAGPY ([5]; rate 0.0625 kg/ha): 0.0
Herbicidal rating SAGPY ([5]; rate 0.1250 kg/ha): 0.0
Herbicidal rating SAGPY ([5]; rate 0.2500 kg/ha): 3.0
Postemergence herbicidal rating SETVI (SETVI (Foxtail, Green) [6]; Rate 0.0313 kg/ha): 0.0
Postemergence herbicidal rating SETVI (SETVI (Foxtail, Green) [6]; Rate 0.0625 kg/ha): 0.0
Herbicidal rating CYPSE (CYPSE (Flatsedge); rate 0.0313 kg/ha): 0.0
Herbicidal rating CYPSE (CYPSE (Flatsedge); rate 0.0625 kg/ha): 0.0
Herbicidal rating CYPSE (CYPSE (Flatsedge); rate 0.1250 kg/ha): 0.0
Herbicidal rating CYPSE (CYPSE (Flatsedge); rate 0.2500 kg/ha): 6.0
Postemergence herbicidal rating CHEAL ([7]; Rate 0.0313 kg/ha): 0.0
Postemergence herbicidal rating CHEAL ([7]; Rate 0.0625 kg/ha): 0.0
Postemergence herbicidal rating ZEAMX (ZEAMX (Corn, Field); Rate 0.0313 kg/ha): 4.5
Postemergence herbicidal rating ZEAMX (ZEAMX (Corn, Field); Rate 0.0625 kg/ha): 5.0
